Where two headings read alike, the source gives them in different places.
Tests used:
[1] = test system: CIC-1 inhibited rat soleus muscles; experiment: Myotonia (tail AUC of force response) in 9AC-treated isolated rat soleus muscle; conditions: for EC50: Rattus norvegicus; for Reduction of myotonia within clinically observed concentration ranges: isolated muscle, species not stated at this place (study on rat and human); for Slope of fit / Ability to abolish myotonia: rat soleus; for Slope of fit: 3-parameter sigmoidal fit of AUC vs concentration; for Ability to abolish myotonia: 9AC, increasing concentrations
rat EDL muscles = experiment: LDH release from stimulated 9AC-treated (myotonic) rat EDL muscles; type: cell-based; conditions: stimulation for 60 min, LDH followed 3 hrs after contraction
Method: In all cases a sample was taken before stimulation (Pre), the muscles were then stimulated to contraction for 2 s at 30 Hz by 0.2 ms pulses every 3 minutes for 60 min (20 stimulations) or left resting. Open symbols are from muscles incubated with 9AC±LTG or RUF. Solid triangles are from muscles incubated with 9AC without stimulation. Immediately after cessation of stimulation, a new sample was taken from solution incubating the muscles. For the next 180 minutes a sample was taken from the incubating solution every 30 minutes, as designated by the time after stimulation. The period from cessation of stimulation to 180 min after stimulation is termed recovery.
EDL muscles from rats were isolated and placed in small chambers with oxygenated as previously described in detail (Gissel H1, Clausen T. Excitation-induced Ca(2+) influx in rat soleus and EDL muscle: mechanisms and effects on cellular integrity. Am J Physiol Regul Integr Comp Physiol. 2000 279(3): R917-24).
To explore for an effect of myotonia on muscle fibre integrity and the effect of the drugs hereupon, the release of the intracellular protein from the muscle, lactate dehydrogenase (LDH), to the incubation solution was determined in contracting EDL muscles.

[2] = test system: isolated human abdominal rectus muscle; experiment: Myotonia (tail AUC) in 9AC-treated bundles of isolated human abdominal rectus muscle; type: cell-based; conditions: for EC50: Homo sapiens, read-out: EC50 (concentration required to reduce AUC to 50% of maximal value); for Slope of fit: human muscle bundles, 3-parameter sigmoidal fit, mean ± SEM; for Ability to abolish myotonia: isolated human muscles, 9AC, increasing concentrations
Method: As in rat muscles myotonia was induced with 9-AC and quantified from the AUC as determined from the cessation of stimulation to force returned to baseline. […] C and D show similar data for RUF (n=4) and LTG (n=6), respectively.
The use of human muscles was approved by the Danish Ethics Committee, Region Midtjylland, Comité I (reference number Jan. 10, 1972-20-13) and was performed in accordance with the Helsinki Declaration. Informed consent was obtained from all subjects before inclusion. Muscles were obtained from 4 male subjects admitted in relation to planned aortic aneurysm surgery at Skejby hospital. […] After isolation the tissue was transported to the laboratory at the University (<30 min) in a HEPES based solution (pH 7.4) at ˜5° C. Upon arrival to the laboratory, the tissue was incubated in often-replaced fresh Krebs-Ringer bicarbonate solution equilibrated with 5% CO2 in oxygen at 30° C. for 10 to 20 min, before further dissection into smaller bundles of approx. 4 cm length weighing 515±61 mg. For contraction experiments, bundles were tied at both ends with polyester string, to enable mounting of the preparations in the setups for measurement of contractile force.
The experiments in FIG. 1 were repeated for small muscle bundles of human abdominal muscle. 9AC was used to induce myotonia and, subsequently, LCM, RUF or LTG were added at increasing concentrations. In all cases, myotonia was reduced with increased concentration of drug. […] Similar traces were obtained with LCM-and LTG-treated bundles of human muscle. FIG. 2B-D show data and sigmoidal fits from individual bundles with additions of LCM (n=5), RUF (n=5) and LTG (n=6), respectively.

[3] = test system: non-myotonic rat soleus muscles; experiment: Contractile force in non-myotonic isolated rat soleus muscles; type: cell-based; conditions: three hrs incubation, 5 and 60 Hz stimulation, similar to time-matched controls
Method: To first test for effects of the three drugs (RUF, LCM and LTG) on force in non-myotonic rat soleus muscles, muscles were exposed to 2 s stimulations at both 5 Hz and 60 Hz every 10 mins during three hrs of drug incubation. The drug concentrations were the highest free concentrations that are tolerated clinically: For both 5 and 60 Hz stimulation, incubation with 5 μM LCM reduced force by ˜6-8% in two muscles. With 25 μM LTG force was reduced by ˜6% in three muscles, and with 100 μM RUF force was reduced by 4% in three muscles. In all cases, these reductions in force during the three hours were similar to reductions observed in time-matched control muscles.

[4] = read-out: EC50 (concentration required to reduce AUC to 50% of maximal value), rat soleus, 100 μM 9AC, 15 Hz 2 s stimulation, 3-parameter sigmoidal fit, mean ± SEM, Table 1 prints no unit, b139 gives concentrations in μM
[5] = 10 min, read-out: EC50 (reduction of AUC), rat soleus, 100 μM 9AC, 15 Hz 2 s every 10 min, two muscles per compound

| EC50 [1, 4] | EC50 [2] | Compound | Reduction of myotonia within clinically observed concentration ranges [1] | Slope of fit ([1]; mean ± SEM) | Ability to abolish myotonia [1] | Effect on myotonia-induced LDH release (muscle damage) (rat EDL muscles) | Slope of fit [2] | Ability to abolish myotonia [2] | EC50 [1, 5] | further results |
| --- | --- | --- | --- | --- | --- | --- | --- | --- | --- | --- |
| 1.52 ± 0.13 µM | 5.54 ± 0.88 µM | Nc1nnc(-c2cccc(Cl)c2Cl)c(N)n1 [Lamotrigine, 6-(2,3-dichlorophenyl)-1,2,4-triazine-3,5-diamine] | 92±2% | −0.39 ± 0.042 | completely abolish myotonia | Very similar effects | −0.30 ± 0.068 | completely abolish myotonia |  | AUC as % of the full myotonic state ([1]; 0.5 μM LTG (FIG. 3 A3)): 90%; Reduction of AUC (myotonia) ([1]; 2 μM LTG (FIG. 1 C3)): ~46%; Reduction of AUC (myotonia) ([1]; 16 μM LTG (FIG. 1 C4)): ~98%; Reduction of force ([3]; 25 μM LTG): ~6% |
|  |  | Cc1c(C(N)=O)nnn1Cc1ccccc1 [Compound 2, 1-benzyl-5-methyl-1H-1,2,3-triazole-4-carboxamide] |  |  | completely abolish myotonia |  |  |  | 19.1 µM |  |
|  |  | NC(=O)c1nnn(Cc2ccccc2)c1N [Compound 1, 5-amino-1-benzyl-1H-1,2,3-triazole-4-carboxamide] |  |  | completely abolish myotonia |  |  |  | 24.7 µM |  |
| 18.1 ± 1.84 µM | 22.5 ± 1.73 µM | NC(=O)c1cn(Cc2c(F)cccc2F)nn1 [Rufinamide, 1-(2,6-Difluorobenzyl)-1H-1,2,3-triazole-4-carboxamide] | 92±2% | −0.29 ± 0.02 | completely abolish myotonia | completely blocked | −0.33 ± 0.035 | completely abolish myotonia |  | Reduction of AUC (myotonia) ([1]; 20 μM RUF, 9AC treated muscle (FIG. 1 B3)): more than 50%; Reduction of AUC (myotonia) ([1]; 100 μM RUF (FIG. 1 B4)): ~98%; EC50 ([1]; read-out: RUF concentration for AUC to be reduced by 50%, in presence of 0.5 μM LTG (n=6)): 7 µM; EC50 ([1]; read-out: RUF concentration for AUC to be reduced by 50%, pre-incubation with 1 μM LTG (n=4)): 3.1 µM; RUF concentration less than expected if RUF and LTG acted purely additively ([1]; isobole plot, 0.5 μM LTG): 5 µM; RUF concentration less than predicted by the assumption of additivity ([1]; isobole plot, 1 μM LTG): 3 µM; RUF concentration for half effect as % of concentration expected for additive action ([1]; with 0.5 μM or 1 μM LTG, both cases): around 50%; Effect on myotonia ([2]; 80 μM RUF, single human muscle bundle, 100 μM 9AC (FIG. 2A)): almost full abolishment of myotonia; Reduction of force ([3]; 100 μM RUF): 4% |

— patent publication US12533345B2 (AARHUS UNIVERSITET, priority 2015, dated 2026)
